Patent publication US20240327364A1, “THERAPEUTIC TARGETING OF GPR68 TO INDUCE FERROPTOSIS” (University Of Maryland, Baltimore, priority 2023, published 2024)

What was measured:
DDR2 = molecular target: T1, DDR2 (Homo sapiens, UniProt Q16832); test: KinomeScan; format: binding; conditions: read-out: % Control
T1 construct: purchased DiscoveRx (Fremont, CA), KinomeScan service

LOK = molecular target: T2, LOK (Homo sapiens, UniProt O94804); test: KinomeScan; format: binding; conditions: read-out: % Control
T2 construct: purchased DiscoveRx

INSR = molecular target: T3, INSR (Homo sapiens, UniProt P06213); test: KinomeScan; format: binding; conditions: read-out: % Control
T3 construct: purchased DiscoveRx (Fremont, CA)

P2Y1 = molecular target: T4, P2Y1 (Homo sapiens, UniProt P47900); test: GPCR Profiler; format: cell-based
T4 construct: host or cells: Chem-1 cells expressing Gα15

panel of 442 kinases = test: KinomeScan panel (summary); format: binding; conditions: 10 uM
GCGR = molecular target: T5, GCGR (Homo sapiens, UniProt P47871); test: GPCR Profiler; format: cell-based
T5 construct: host or cells: Chem-1 cells expressing Gα15

FGFR1 = molecular target: T6, FGFR1 (Homo sapiens, UniProt P11362); test: KinomeScan; format: binding; conditions: read-out: % Control
T6 construct: purchased DiscoveRx (Fremont, CA)

TBK1 = molecular target: T7, TBK1 (Homo sapiens, UniProt Q9UHD2); test: KinomeScan; format: binding; conditions: read-out: % Control
T7 construct: purchased DiscoveRx (Fremont, CA)

WEE1 = molecular target: T8, WEE1 (Homo sapiens, UniProt P30291); test: KinomeScan; format: binding; conditions: read-out: % Control
T8 construct: purchased DiscoveRx

CHEK1 = CHEK1 (Homo sapiens, UniProt O14757); test: KinomeScan; format: binding; conditions: read-out: % Control
MLK2 = molecular target: T9, MLK2 (Homo sapiens, UniProt Q02779); test: KinomeScan; format: binding; conditions: read-out: % Control
T9 construct: purchased DiscoveRx

MCHR1 = molecular target: T10, MCHR1 (Homo sapiens, UniProt Q99705); test: GPCR Profiler; format: cell-based; conditions: 12.5 uM
T10 construct: host or cells: Chem-1 cells with promiscuous Gα15

KIT(D816H) = molecular target: T11, KIT(D816H) (Homo sapiens, UniProt P10721, D816H); test: KinomeScan; format: binding; conditions: read-out: % Control
T11 construct: purchased DiscoveRx

BMPR2 = molecular target: T12, BMPR2 (Homo sapiens, UniProt Q13873); test: KinomeScan; format: binding; conditions: read-out: % Control
T12 construct: purchased DiscoveRx (Fremont, CA)

5-HT6 = molecular target: T13, 5-HT6 (Homo sapiens, UniProt P50406); test: GPCR Profiler; format: cell-based
T13 construct: host or cells: Chem-1 cells with promiscuous Gα15

PIM3 = molecular target: T14, PIM3 (Homo sapiens, UniProt Q86V86); test: KinomeScan; format: binding; conditions: read-out: % Control
T14 construct: purchased DiscoveRx (Fremont, CA)

[1] = molecular target: T15, RSK1(Kin.Dom.2-C-terminal) (Homo sapiens, UniProt Q15418); test: KinomeScan; format: binding; conditions: read-out: % Control
T15 construct: RSK1(Kin.Dom.2-C-terminal); purchased DiscoveRx (Fremont, CA)

PK1 = molecular target: T16, PK1 (Homo sapiens, UniProt Q8TCW9); test: GPCR Profiler; format: cell-based
T16 construct: host or cells: Chem-1 cells with Gα15

CDK8 = molecular target: T17, CDK8 (Homo sapiens, UniProt P49336); test: KinomeScan; format: binding; conditions: read-out: % Control
T17 construct: purchased DiscoveRx (KinomeScan service)

[2] = molecular target: T18, JAK3(JH1domain-catalytic) (Homo sapiens, UniProt P52333); test: KinomeScan; format: binding; conditions: read-out: % Control
T18 construct: JAK3(JH1domain-catalytic); purchased DiscoveRx (Fremont, CA)

LYN = molecular target: T19, LYN (Homo sapiens, UniProt P07948); test: KinomeScan; format: binding; conditions: read-out: % Control
T19 construct: purchased DiscoveRx

MYLK4 = molecular target: T20, MYLK4 (Homo sapiens, UniProt Q86YV6); test: KinomeScan; format: binding; conditions: read-out: % Control
T20 construct: purchased DiscoveRx

TNK2 = molecular target: T21, TNK2 (Homo sapiens, UniProt Q07912); test: KinomeScan; format: binding; conditions: read-out: % Control
T21 construct: purchased DiscoveRx (Fremont, CA)

DCAMKL2 = molecular target: T22, DCAMKL2 (Homo sapiens, UniProt Q8N568); test: KinomeScan; format: binding; conditions: read-out: % Control
T22 construct: purchased DiscoveRx (Fremont, CA), KinomeScan service

EGFR(S752-1759del) = molecular target: T23, EGFR(S752-1759del) (Homo sapiens, UniProt P00533, DEL752-759); test: KinomeScan; format: binding; conditions: read-out: % Control
T23 construct: purchased DiscoveRx (Fremont, CA)

YANK2 = molecular target: T24, YANK2 (Homo sapiens, UniProt Q9NY57); test: KinomeScan; format: binding; conditions: read-out: % Control
T24 construct: purchased DiscoveRx

U87 glioblastoma cells = test: Acid-induced calcium flux in U87 cells; format: cell-based, human; conditions: medium shifted from pH 7.8 to 6.4
Text: GPR68 is known to signal through Gq which results in a calcium flux out of the Endoplasmic reticulum. U87 glioblastoma cells were stained, using a calcium-sensitive vital dye Fluo-8, and stimulated with acidification of the media to pH6.4. The cells respond to the acidification with a burst of calcium release, this is inhibited by OGM2.
To determine if GBM cells respond to their own acidic extracellular milieu as a form of autocrine signaling, calcium release in response to acidification was measured. GPR68 is known to couple to the Gq subunit, which acts to release calcium from the ER in a PLC dependent pathway. The medium was shifted from pH 7.8 to 6.4, which triggered a rapid and robust calcium flux, as measured by the fluorescence intensity of calcium-sensitive dye Cal520-AM. This calcium flux was blocked by OGM2 and PLC inhibitor U73122. FIG. 50A, FIG. 50B, FIG. 50C and FIG. 50D.

T4 sequence (P47900 whole entry, species assumed): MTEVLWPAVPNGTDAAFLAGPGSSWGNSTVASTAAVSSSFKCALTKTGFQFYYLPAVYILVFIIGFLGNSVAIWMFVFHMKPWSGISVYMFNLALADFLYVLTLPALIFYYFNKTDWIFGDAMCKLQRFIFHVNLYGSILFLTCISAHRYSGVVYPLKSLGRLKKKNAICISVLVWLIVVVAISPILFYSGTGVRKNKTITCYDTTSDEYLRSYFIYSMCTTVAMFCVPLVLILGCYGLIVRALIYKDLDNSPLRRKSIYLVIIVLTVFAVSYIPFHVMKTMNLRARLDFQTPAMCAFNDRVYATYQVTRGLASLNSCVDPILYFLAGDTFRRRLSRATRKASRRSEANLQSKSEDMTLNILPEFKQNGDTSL
T13 sequence (P50406 whole entry, species assumed): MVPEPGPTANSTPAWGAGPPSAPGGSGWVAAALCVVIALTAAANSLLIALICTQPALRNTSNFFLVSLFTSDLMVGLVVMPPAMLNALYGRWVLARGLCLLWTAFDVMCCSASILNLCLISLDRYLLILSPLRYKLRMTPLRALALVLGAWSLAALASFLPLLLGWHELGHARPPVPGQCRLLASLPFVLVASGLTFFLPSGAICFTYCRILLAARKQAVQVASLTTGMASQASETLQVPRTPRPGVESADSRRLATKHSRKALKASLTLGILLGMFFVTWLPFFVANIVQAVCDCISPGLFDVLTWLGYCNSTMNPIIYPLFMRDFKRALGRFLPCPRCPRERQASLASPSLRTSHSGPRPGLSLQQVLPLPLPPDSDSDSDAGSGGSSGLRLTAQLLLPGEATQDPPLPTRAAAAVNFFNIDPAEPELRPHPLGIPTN
T5 sequence (P47871 26-477): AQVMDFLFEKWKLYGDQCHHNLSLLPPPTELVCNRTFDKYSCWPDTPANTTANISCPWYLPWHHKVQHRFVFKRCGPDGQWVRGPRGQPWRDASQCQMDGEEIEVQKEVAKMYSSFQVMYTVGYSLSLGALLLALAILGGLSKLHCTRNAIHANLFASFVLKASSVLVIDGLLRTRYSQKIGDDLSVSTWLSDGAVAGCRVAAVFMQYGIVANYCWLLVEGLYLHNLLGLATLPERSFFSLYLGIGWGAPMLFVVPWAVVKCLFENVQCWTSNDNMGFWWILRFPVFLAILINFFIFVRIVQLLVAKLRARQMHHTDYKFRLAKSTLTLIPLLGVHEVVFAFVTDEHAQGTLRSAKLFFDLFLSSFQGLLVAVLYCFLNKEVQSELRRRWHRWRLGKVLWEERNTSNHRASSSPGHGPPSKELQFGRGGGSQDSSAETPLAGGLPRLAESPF
T16 sequence (Q8TCW9 whole entry): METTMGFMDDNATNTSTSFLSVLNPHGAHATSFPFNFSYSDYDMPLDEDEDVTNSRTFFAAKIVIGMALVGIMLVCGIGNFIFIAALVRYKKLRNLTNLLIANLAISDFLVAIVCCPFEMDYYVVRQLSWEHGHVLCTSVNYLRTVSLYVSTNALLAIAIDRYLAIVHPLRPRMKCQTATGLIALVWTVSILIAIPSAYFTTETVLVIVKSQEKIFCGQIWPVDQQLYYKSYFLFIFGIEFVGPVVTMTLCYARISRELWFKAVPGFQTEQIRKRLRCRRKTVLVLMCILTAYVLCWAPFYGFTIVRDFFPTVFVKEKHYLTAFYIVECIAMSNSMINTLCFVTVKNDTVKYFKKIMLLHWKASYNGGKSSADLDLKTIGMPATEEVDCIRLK
T17 sequence (P49336 whole entry): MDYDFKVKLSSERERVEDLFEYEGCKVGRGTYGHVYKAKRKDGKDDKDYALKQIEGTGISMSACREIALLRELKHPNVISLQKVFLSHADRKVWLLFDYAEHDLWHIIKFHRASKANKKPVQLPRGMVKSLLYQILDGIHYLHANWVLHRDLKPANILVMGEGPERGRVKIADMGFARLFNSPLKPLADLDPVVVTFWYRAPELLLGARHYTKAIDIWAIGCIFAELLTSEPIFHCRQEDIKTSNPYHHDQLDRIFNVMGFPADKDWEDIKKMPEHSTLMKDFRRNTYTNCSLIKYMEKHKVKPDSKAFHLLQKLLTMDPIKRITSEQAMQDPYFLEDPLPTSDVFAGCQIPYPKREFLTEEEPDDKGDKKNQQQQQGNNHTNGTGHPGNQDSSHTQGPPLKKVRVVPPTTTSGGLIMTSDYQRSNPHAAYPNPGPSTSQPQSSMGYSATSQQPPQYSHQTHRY
Chain of CHEK1 (O14757 whole entry): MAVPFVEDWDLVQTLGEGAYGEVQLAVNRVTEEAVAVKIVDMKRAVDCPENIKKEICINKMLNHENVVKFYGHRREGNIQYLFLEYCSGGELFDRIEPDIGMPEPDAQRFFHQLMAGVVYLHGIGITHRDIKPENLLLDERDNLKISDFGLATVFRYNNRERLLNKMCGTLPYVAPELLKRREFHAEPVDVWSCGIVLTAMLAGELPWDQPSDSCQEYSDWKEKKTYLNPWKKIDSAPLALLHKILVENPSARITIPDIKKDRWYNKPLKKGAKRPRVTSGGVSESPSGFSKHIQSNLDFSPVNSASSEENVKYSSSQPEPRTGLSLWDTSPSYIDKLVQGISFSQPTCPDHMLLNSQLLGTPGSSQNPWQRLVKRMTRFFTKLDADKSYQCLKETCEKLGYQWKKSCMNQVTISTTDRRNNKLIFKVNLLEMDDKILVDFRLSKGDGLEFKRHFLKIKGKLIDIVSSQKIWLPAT
T3 sequence (P06213 28-1382): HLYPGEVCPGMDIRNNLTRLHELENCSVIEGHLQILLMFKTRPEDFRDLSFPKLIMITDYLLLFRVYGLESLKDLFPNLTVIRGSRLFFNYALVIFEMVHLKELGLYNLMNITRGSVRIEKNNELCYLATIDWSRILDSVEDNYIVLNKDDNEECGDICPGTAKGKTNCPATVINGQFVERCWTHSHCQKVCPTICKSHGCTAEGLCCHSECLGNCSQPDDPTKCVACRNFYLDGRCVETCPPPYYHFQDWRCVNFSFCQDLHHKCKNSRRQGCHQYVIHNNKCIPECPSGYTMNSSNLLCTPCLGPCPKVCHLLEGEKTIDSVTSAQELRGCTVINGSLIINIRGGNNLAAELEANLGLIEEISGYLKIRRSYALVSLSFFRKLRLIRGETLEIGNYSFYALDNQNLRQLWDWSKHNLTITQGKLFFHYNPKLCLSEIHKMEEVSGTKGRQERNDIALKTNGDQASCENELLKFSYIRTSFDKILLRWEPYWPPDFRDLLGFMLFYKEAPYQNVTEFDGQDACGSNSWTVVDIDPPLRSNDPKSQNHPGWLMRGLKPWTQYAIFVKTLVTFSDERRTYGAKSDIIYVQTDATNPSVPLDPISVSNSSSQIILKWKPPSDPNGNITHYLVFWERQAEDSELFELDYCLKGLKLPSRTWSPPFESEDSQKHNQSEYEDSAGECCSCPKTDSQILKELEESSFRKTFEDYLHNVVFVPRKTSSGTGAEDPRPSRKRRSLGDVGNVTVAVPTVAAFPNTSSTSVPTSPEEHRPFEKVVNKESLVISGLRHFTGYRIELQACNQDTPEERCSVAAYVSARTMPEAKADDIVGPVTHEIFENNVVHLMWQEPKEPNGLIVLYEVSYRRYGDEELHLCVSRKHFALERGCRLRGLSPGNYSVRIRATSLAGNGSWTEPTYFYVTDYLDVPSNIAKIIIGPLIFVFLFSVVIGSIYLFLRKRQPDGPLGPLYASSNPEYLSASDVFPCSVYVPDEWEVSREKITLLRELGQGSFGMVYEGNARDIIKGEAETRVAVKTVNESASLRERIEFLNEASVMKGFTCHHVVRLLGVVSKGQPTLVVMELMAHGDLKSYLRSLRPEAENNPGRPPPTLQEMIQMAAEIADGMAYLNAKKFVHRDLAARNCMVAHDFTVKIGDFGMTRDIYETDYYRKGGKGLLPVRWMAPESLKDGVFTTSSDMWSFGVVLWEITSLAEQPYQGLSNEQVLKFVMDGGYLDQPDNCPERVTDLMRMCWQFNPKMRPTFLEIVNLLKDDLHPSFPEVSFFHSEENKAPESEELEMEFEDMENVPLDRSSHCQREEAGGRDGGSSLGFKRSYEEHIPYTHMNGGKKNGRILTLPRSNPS
T7 sequence (Q9UHD2 whole entry): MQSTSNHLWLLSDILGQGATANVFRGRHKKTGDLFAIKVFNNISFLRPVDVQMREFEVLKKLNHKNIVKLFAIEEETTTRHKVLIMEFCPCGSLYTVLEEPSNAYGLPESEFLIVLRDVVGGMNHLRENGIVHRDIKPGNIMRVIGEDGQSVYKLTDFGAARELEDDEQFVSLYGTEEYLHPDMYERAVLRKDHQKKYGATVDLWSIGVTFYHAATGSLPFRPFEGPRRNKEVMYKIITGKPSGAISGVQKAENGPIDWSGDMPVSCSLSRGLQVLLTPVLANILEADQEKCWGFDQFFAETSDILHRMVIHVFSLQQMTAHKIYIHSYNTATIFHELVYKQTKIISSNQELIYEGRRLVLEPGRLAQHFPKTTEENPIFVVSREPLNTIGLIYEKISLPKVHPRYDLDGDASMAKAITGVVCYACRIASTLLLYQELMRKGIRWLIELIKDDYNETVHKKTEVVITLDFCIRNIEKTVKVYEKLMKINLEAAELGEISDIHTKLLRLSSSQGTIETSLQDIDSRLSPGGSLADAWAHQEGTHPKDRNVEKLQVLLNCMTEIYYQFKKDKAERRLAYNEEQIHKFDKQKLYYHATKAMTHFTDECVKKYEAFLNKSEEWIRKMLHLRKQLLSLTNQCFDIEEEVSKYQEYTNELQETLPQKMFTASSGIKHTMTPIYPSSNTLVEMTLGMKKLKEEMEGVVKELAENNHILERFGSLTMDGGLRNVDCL
T18 sequence (P52333 822-1111 limits assumed): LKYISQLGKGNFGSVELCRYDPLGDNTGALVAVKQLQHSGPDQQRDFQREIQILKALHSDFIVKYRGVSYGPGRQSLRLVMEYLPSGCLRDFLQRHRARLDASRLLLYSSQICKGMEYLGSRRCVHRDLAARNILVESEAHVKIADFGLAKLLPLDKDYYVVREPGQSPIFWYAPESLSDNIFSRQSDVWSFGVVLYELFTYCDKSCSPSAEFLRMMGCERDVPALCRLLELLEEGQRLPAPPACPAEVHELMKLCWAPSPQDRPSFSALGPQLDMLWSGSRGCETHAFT

CCc1ccc2c(c1)C1(NN=C(c3cccc4ccccc34)S1)C(=O)N2 (stereo not shown) [OGM1, 5-ethyl-5′-naphthalen-1-ylspiro[1H-indole-3,2′-3H-1,3,4-thiadiazole]-2-one]
remaining binding at 10 µM (DDR2): 86% | remaining binding at 10 µM (LOK): 100% | remaining binding at 10 µM (INSR): 80% | Antagonism (P2Y1; 10 uM): −6.3 | Agonism (P2Y1; 12.5 uM): 1.7 | interaction with kinase domains (panel of 442 kinases): did not physically interact with the kinase domain of any kinase | Antagonism (GCGR; 10 uM): 6.1 | Agonism (GCGR; 12.5 uM): −0.1 | remaining binding at 10 µM (FGFR1): 100% | remaining binding at 10 µM (TBK1): 90% | remaining binding at 10 µM (WEE1): 100% | remaining binding at 10 µM (CHEK1): 100% | remaining binding at 10 µM (MLK2): 100% | Agonism (MCHR1): −0.4 | remaining binding at 10 µM (KIT(D816H)): 97% | remaining binding at 10 µM (BMPR2): 92% | Antagonism (5-HT6; 10 uM): −4.4 | Agonism (5-HT6; 12.5 uM): −0.7 | remaining binding at 10 µM (PIM3): 73% | remaining binding at 10 µM [1]: 73% | Antagonism (PK1; 10 uM): −8 | Agonism (PK1; 12.5 uM): 0.2 | remaining binding at 10 µM (CDK8): 100% | remaining binding at 10 µM [2]: 84% | remaining binding at 10 µM (LYN): 100% | remaining binding at 10 µM (MYLK4): 98% | remaining binding at 10 µM (TNK2): 100% | remaining binding at 10 µM (DCAMKL2): 100% | remaining binding at 10 µM (EGFR(S752-1759del)): 91% | remaining binding at 10 µM (YANK2): 100%

CCc1ccc2c(c1)C1(NN=C(c3ccccc3)S1)C(=O)N2 (stereo not shown) [OGM2]
acid-induced calcium flux (U87 glioblastoma cells): blocked
